Assay [1] has as its target T1, GST-cGB-PDE5 fusion protein (Homo sapiens, UniProt O76074).
T1 construct: made in house; host or cells: E. coli BL21 (DE3)
Kind of assay: cGMP binding assay with GST-cGB-PDE5 fusion protein. The following applies: 3H-cGMP 2 μM, 22° C., 1 hour. The source says: RT-PCR method is used to obtain the cGB domain of PDE5 with forward and reverse primers designed from bovine PDE5A cDNA sequence (McAllister-Lucas L. M et al, J. Biol. Chem. 268, 22863-22873, 1993) and the selection among PDE 1-10 families. 5′-3′, Inc. kits for total RNA followed by oligo (dT) column purification of mRNA are used with HT-29 cells. […] It is then cloned into pGEX-5X-3 glutathione-S-transferase (GST) fusion vector (Pharmacia Biotech )with tac promoter, and EcoRI and XhoI cut sites. The fusion vector is then transfected into E. Coli BL21 (DE3) bacteria (Invitrogen). The transfected BL21 bacteria is grown to log phase, and then IPTG is added as an inducer. The induction is carried at 20° C. for 24 hrs. The bacteria are harvested and lysed. The soluble cell lysate is incubated with GSH conjugated Sepharose 4B (GSH-Sepharose 4B). The GST-cGB-PDE5 fusion protein can bind to the GSH-Sepharose beads, and the other proteins are washed off from beads with excessive cold PBS.
Then, the mixture is transferred to Brandel MB-24 cell harvester with GF/B as the filter membrane followed by 2 washes with 10 mL of cold 5 mM potassium buffer(pH 6.8). The membranes are then cut out and transferred to scintillation vials followed by the addition of 1 mL of H2O and 6 mL of Ready Safe™ liquid scintillation cocktail to each vial. The vials are counted on a Beckman LS 6500 scintillation counter.
The quenching by filter membrane or other debris are also calibrated.

Another assay has as its system U937 cells. Kind of assay: apoptosis induction of U937 cells (active caspase 3 immunofluorescence). The following applies: 1 μM, 24 hours, hydrochloride. The format is cell-based. On the procedure:
The U937 monocyte cell line was derived from a histocytic lymphoma and can be driven to differentiate into an ‘activated macrophage like’ state by treatment with 5nM phorbal ester (TPA). Treated U937 cells become adherent, increase their cytoplasmic volume and express macrophage-specific cell surface markers. The presence and level of PDE2 and 5 mRNA in both differentiated and non-differentiated U937 cells was confirmed by performing RT-PCR experiments on total RNA.
U937 cells (from ATCC Rockville, Md.) were grown in RPMI media supplemented with 5% FCS, glutamine, antibiotic/antimycotic and sodium pyruvate. Total RNA was isolated from two U937 cultures, one treated with 5nM TPA for 48 hours and one grown in normal media as listed above, using the Rouche High Pure RNA Isolation Kit (cat# 1 828 665) as per manufacturers protocol. cDNA was then synthesized from the total RNA using GibcoBRL Superscriptll (Cat # 18064-022) reverse transcriptase as per manufacturers protocol. The resulting cDNA was used as a template for RT-PCR reactions using primer sets specific for PDE2 (forward: […], reverse: […]) or PDE5 (forward: […], reverse: […]). mRNA for PDE2 and 5 were both present in the untreated U937 cells. Upon treatment with TPA, the relative amounts of PDE2 mRNA increased 5 fold. Therefore, U937 cells treated with TPA and driven to differentiate into an activated macrophage like state have elevated levels of PDE2 mRNA (see FIG. 1).
The presence of PDE2 and PDE5 protein within U937 cells was confirmed by indirect immunofluorescence (IIF). U937 cells were cultured as above. Two U937 cultures, one grown in the presence of 5 nM TPA for 48 hours and one grown in normal media were processed. All cultures were collected by centrifugation (Shandon Cytospin, 2 minutes @ 600 rpm) onto poly-L lysine-coated slides and immediately fixed in fresh 3% paraformaldehyde buffered in PBS for 10 minutes. Adherent cultures were grown on coverslips and fixed as above. […]
The level of apoptosis in U937 cells was quantified by scoring 500 consecutive cells for the presence of active caspase 3. […]

The results in this text go back to patent publication US6465494B1, “Methods for treatment of cystic fibrosis” (Cell Pathways, Inc., priority 2001, dated 2002).

Structures are written as SMILES. Entries after “also recorded” stand apart in the source; their conditions may differ. Counter-ions that a name gives are not always drawn.

Turning to `CC1=C(CC(=O)NCc2ccccc2)c2cc(F)ccc2/C1=C\c1ccncc1` [Example 38, (Z)-5-fluoro-2-methyl-(4-pyridylidene)-3-(N-benzyl)indenylacetamide hydrochloride], the “competition with cGMP in binding to the cGMP binding sites of GST-cGB-PDE5” value in assay [1] is listed as “does not bind to the cGMP-binding site of PDE5”. In addition, the “induction of apoptosis (active caspase 3)” value in the assay on U937 cells was “undergoing apoptosis as reflected by the presence of active caspase 3; also recorded: causes the induction of apoptosis in the differentiated and non-differentiated U937 cell line”.
